# Results: patent US20090156577A1, “7-AMINO ALKYLIDENYL-HETEROCYCLIC QUINOLONES AND NAPHTHYRIDONES” (priority 2004, published 2009)
# Counter-ions that a name gives are not always drawn. Like-named read-outs stand apart in the source and are kept apart here.
# Test system: pathogenic bacteria
# Test: MIC by microdilution broth method (NCCLS M7-A4), in vitro antibacterial activity
# Type: cell-based
# Description: Minimal inhibitory concentration (MIC) has been an indicator of in vitro antibacterial activity widely used in the art. The in vitro antimicrobial activity of the compounds was determined by the microdilution broth method following the test method from the National Committee for Clinical Laboratory Standards (NCCLS). This method is described in the NCCLS Document M7-A4, Vol. 17, No. 2, “Methods for Dilution Antimicrobial Susceptibility Test for Bacteria that Grow Aerobically—Fourth Edition”, which is incorporated herein by reference.
# In this method two-fold serial dilutions of drug in cation adjusted Mueller-Hinton broth are added to wells in microdilution trays. The test organisms are prepared by adjusting the turbidity of actively growing broth cultures so that the final concentration of test organism after it is added to the wells is approximately 5×10^4 CFU/well.
# Following inoculation of the microdilution trays, the trays are incubated at 35° C. for 16-20 hours and then read. […] The amount of growth in the wells containing the test compound is compared with the amount of growth in the growth-control wells (no test compound) used in each tray. As set forth in Table 5, compounds of the present invention were tested against a variety of pathogenic bacteria resulting in a range of activities depending on the organism tested.
# [1] = Streptococcus pneumoniae, Organism B: fluoroquinolone-resistant clinical isolate of Streptococcus pneumoniae (QRDR amino acid substitutions)
# [2] = Streptococcus pneumoniae, Organism C: fluoroquinolone-resistant clinical isolate of Streptococcus pneumoniae (QRDR amino acid substitutions)
# [3] = Streptococcus pneumoniae, Organism D: fluoroquinolone-resistant clinical isolate of Streptococcus pneumoniae (QRDR amino acid substitutions)
# [4] = Staphylococcus aureus, Organism A: Staphylococcus aureus OC4172, read-out: MIC
# [5] = Streptococcus pneumoniae, ATCC49619, Organism E: Streptococcus pneumoniae ATCC 49619, read-out: MIC
compound,measurement,setting,value
"CNCC(Cl)=C1CCN(c2c(F)cc3c(=O)c(C(=O)O)cn(C4CC4)c3c2OC)CC1 [Compound 72, 7-[4-(1-Chloro-2-methylamino-ethylidene)-piperidin-1-yl]-1-cyclopropyl-6-fluoro-8-methoxy-4-oxo-1,4-dihydroquinoline-3-carboxylic Acid Trifluoroacetic Acid Salt]",MIC,"Staphylococcus aureus, Organism A: Staphylococcus aureus OC4172",0.03 µg/mL
same,MIC,"Streptococcus pneumoniae, ATCC49619, Organism E: Streptococcus pneumoniae ATCC 49619",0.12 µg/mL
same,MIC,[1],0.25 µg/mL
same,MIC,[2],0.5 µg/mL
same,MIC,[3],0.25 µg/mL
"NCC(Cl)=C1CCN(c2c(F)cc3c(=O)c(C(=O)O)cn(C4CC4)c3c2OC(F)F)CC1 [Compound 73, 7-[4-(2-Amino-1-chloro-ethylidene)-piperidin-1-yl]-1-cyclopropyl-8-difluoromethoxy-6-fluoro-4-oxo-1,4-dihydro-quinoline-3-carboxylic acid]",MIC,[4],0.06 µg/mL
same,MIC,[5],0.12 µg/mL
same,MIC,[1],0.5 µg/mL
same,MIC,[2],1 µg/mL
same,MIC,[3],0.25 µg/mL
"CNCC(C)=C1CCN(c2c(F)cc3c(=O)c(C(=O)O)cn(C4CC4)c3c2OC(F)F)CC1 [Compound 74, 1-Cyclopropyl-8-difluoromethoxy-6-fluoro-7-[4-(1-methyl-2-methylamino-ethylidene)-piperidin-1-yl]-4-oxo-1,4-dihydro-quinoline-3-carboxylic acid]",MIC,Organism C: fluoroquinolone-resistant clinical isolate of Streptococcus pneumoniae (QRDR amino acid substitutions),1 µg/mL
same,MIC,Organism E: Streptococcus pneumoniae ATCC 49619,0.12 µg/mL
same,MIC,[4],0.06 µg/mL
same,MIC,[3],0.25 µg/mL
"CCNCC(Cl)=C1CCN(c2c(F)cc3c(=O)c(C(=O)O)cn(C4CC4)c3c2OC)CC1 [Compound 75, 7-[4-(1-Chloro-2-ethylamino-ethylidene)-piperidin-1-yl]-1-cyclopropyl-6-fluoro-8-methoxy-4-oxo-1,4-dihydro-quinoline-3-carboxylic acid]",MIC,[4],0.12 µg/mL
same,MIC,[5],0.25 µg/mL
same,MIC,[1],1 µg/mL
same,MIC,[2],1 µg/mL
same,MIC,[3],1 µg/mL
"NCC(Cl)=C1CCN1c1cc2c(cc1F)c(=O)c(C(=O)O)cn2C1CC1 [Compound 76, 7-[4-(2-Amino-1-chloro-ethylidene)-azetidin-1-yl}-1-cyclopropyl-6-fluoro-4-oxo-1,4-dihydro-quinoline-3-carboxylic acid]",MIC,[4],0.03 µg/mL
same,MIC,[5],0.25 µg/mL
same,MIC,[1],2 µg/mL
same,MIC,[2],1 µg/mL
same,MIC,[3],2 µg/mL
"C[C@H]1COc2c(N3CC(=C(Cl)CN)C3)c(F)cc3c(=O)c(C(=O)O)cn1c23 [Compound 77, 9-[3-(2-Amino-1-chloro-ethylidene)-azetidin-1-yl}-8-fluoro-(3S)-3-methyl-6-oxo-2,3-dihydro-6H-1-oxa-3a-aza-phenalene-5-carboxylic acid]",MIC,[4],0.12 µg/mL
same,MIC,[5],1 µg/mL
same,MIC,[1],8 µg/mL
same,MIC,[2],16 µg/mL
same,MIC,[3],16 µg/mL
"COc1c(N2CCC(=C(F)CN)C(C)(C)C2)c(F)cc2c(=O)c(C(=O)O)cn(C3CC3)c12 [Compound 78, 7-[4-(2-Amino-1-fluoro-ethylidene)-3,3-dimethyl-piperidin-1-yl]-1-cyclopropyl-6-fluoro-8-methoxy-4-oxo-1,4-dihydro-quinoline-3-carboxylic acid]",MIC,[4],1 µg/mL
same,MIC,[5],0.25 µg/mL
same,MIC,[1],2 µg/mL
same,MIC,[2],1 µg/mL
"CNCC(C)=C1CCN(c2nc3c(cc2F)c(=O)c(C(=O)O)cn3C2CC2)CC1 [Compound 79, 1-Cyclopropyl-6-fluoro-7-[4-(1-methyl-2-methylamino-ethylidene)-piperidin-1-yl]-4-oxo-1,4-dihydro-[1,8]naphthyridine-3-carboxylic acid]",MIC,Organism A: Staphylococcus aureus OC4172,0.06 µg/mL
same,MIC,[5],0.25 µg/mL
same,MIC,[2],2 µg/mL
same,MIC,[3],1 µg/mL
"NCC(F)=C1CN(c2nc3c(cc2F)c(=O)c(C(=O)O)cn3C2CC2)C1 [Compound 80, 7-[3-(2-Amino-1-fluoro-ethylidene)-azetidin-1-yl]-1-cyclopropyl-6-fluoro-4-oxo-1,4-dihydro-[1,8]naphthyridine-3-carboxylic acid]",MIC,[4],0.06 µg/mL
same,MIC,[5],0.12 µg/mL
same,MIC,[1],0.5 µg/mL
same,MIC,[2],2 µg/mL
same,MIC,[3],1 µg/mL
"NCC(Cl)=C1CN(c2nc3c(cc2F)c(=O)c(C(=O)O)cn3C2CC2)C1 [Compound 81, 7-[3-(2-Amino-1-chloro-ethylidene)-azetidin-1-yl}-1-cyclopropyl-6-fluoro-4-oxo-1,4-dihydro-[1,8]naphthyridine-3-carboxylic acid]",MIC,[4],0.06 µg/mL
same,MIC,[5],0.25 µg/mL
same,MIC,[1],1 µg/mL
same,MIC,[2],2 µg/mL
same,MIC,[3],2 µg/mL
"NCC(F)=C1CN(c2c(F)cc3c(=O)c(C(=O)O)cn(C4CC4)c3c2OC(F)F)C1 [Compound 160, 7-[3-(2-Amino-1-fluoro-ethylidene)-azetidin-1-yl]-1-cyclopropyl-8-difluoromethoxy-6-fluoro-4-oxo-1,4-dihydro-quinoline-3-carboxylic acid]",MIC,[4],0.06 µg/mL
same,MIC,[5],0.12 µg/mL
same,MIC,[1],2 µg/mL
same,MIC,[2],2 µg/mL
same,MIC,[3],1 µg/mL
"O=C(O)c1cn(C2CC2)c2nc(N3CCC(=CCO)CC3)c(F)cc2c1=O [Compound 163, 1-Cyclopropyl-6-fluoro-7-[4-(2-hydroxy-ethylidene)-piperidin-1-yl]-4-oxo-1,4-dihydro-[1,8]naphthyridine-3-carboxylic acid]",MIC,[4],0.12 µg/mL
same,MIC,[5],1 µg/mL
same,MIC,[1],4 µg/mL
same,MIC,[2],4 µg/mL
"O=C(O)c1cn(C2CC2)c2cc(N3CCC(=CCO)CC3)c(F)cc2c1=O [Compound 164, 1-Cyclopropyl-6-fluoro-7-[4-(2-hydroxy-ethylidene)-piperidin-1-yl]-4-oxo-1,4-dihydro-quinoline-3-carboxylic acid]",MIC,[4],0.12 µg/mL
same,MIC,[5],2 µg/mL
same,MIC,[1],32 µg/mL
same,MIC,[2],> 32 µg/mL
"CC(C)NCC(Cl)=C1CCN(c2nc3c(cc2F)c(=O)c(C(=O)O)cn3C2CC2)CC1 [Compound 166, 7-[4-(1-Chloro-2-isopropylamino-ethylidene)-piperidin-1-yl]-1-cyclopropyl-6-fluoro-4-oxo-1,4-dihydro-[1,8]naphthyridine-3-carboxylic acid]",MIC,[4],0.5 µg/mL
same,MIC,[5],1 µg/mL
same,MIC,[2],4 µg/mL
same,MIC,[3],4 µg/mL
"O=C(O)c1cn(C2CC2)c2nc(N3CCC(=C(F)CO)CC3)c(F)cc2c1=O [Compound 172, 1-Cyclopropyl-6-fluoro-7-[4-(1-fluoro-2-hydroxy-ethylidene)-piperidin-1-yl]-4-oxo-1,4-dihydro-[1,8]naphthyridine-3-carboxylic acid]",MIC,[4],0.06 µg/mL
same,MIC,[5],1 µg/mL
same,MIC,[1],32 µg/mL
same,MIC,[2],16 µg/mL
"CC1(C)CN(c2nc3c(cc2F)c(=O)c(C(=O)O)cn3C2CC2)CCC1=C(F)CN [Compound 175, 7-[4-(2-Amino-1-fluoro-ethylidene)-3,3-dimethyl-piperidin-1-yl]-1-cyclopropyl-6-fluoro-4-oxo-1,4-dihydro-[1,8]naphthyridine-3-carboxylic acid]",MIC,[4],0.5 µg/mL
same,MIC,[5],0.25 µg/mL
same,MIC,[1],2 µg/mL
same,MIC,[2],2 µg/mL
same,MIC,[3],1 µg/mL
"CC1(C)CN(c2nc3c(cc2F)c(=O)c(C(=O)O)cn3C2CC2)CCC1=C(Br)CN [Compound 176, 7-[4-(2-Amino-1-bromo-ethylidene)-3,3-dimethyl-piperidin-1-yl]-1-cyclopropyl-6-fluoro-4-oxo-1,4-dihydro-[1,8]naphthyridine-3-carboxylic acid]",MIC,[4],0.25 µg/mL
same,MIC,[5],0.12 µg/mL
same,MIC,[1],0.5 µg/mL
same,MIC,[2],1 µg/mL
same,MIC,[3],1 µg/mL
"CN(C)CCNCC(Cl)=C1CCN(c2nc3c(cc2F)c(=O)c(C(=O)O)cn3C2CC2)CC1 [Compound 177, 7-{4-[1-Chloro-2-(2-dimethylamino-ethylamino)-ethylidene]-piperidin-1-yl}-1-cyclopropyl-6-fluoro-4-oxo-1,4-dihydro-[1,8]naphthyridine-3-carboxylic acid]",MIC,[4],1 µg/mL
same,MIC,[5],4 µg/mL
same,MIC,[1],8 µg/mL
same,MIC,[2],> 16 µg/mL
same,MIC,[3],> 16 µg/mL
"C=CC(Cl)=C1CCN(c2nc3c(cc2F)c(=O)c(C(=O)O)cn3C2CC2)CC1 [Compound 178, 7-[4-(1-Chloro-allylidene)-piperidin-1-yl]-1-cyclopropyl-6-fluoro-4-oxo-1,4-dihydro-[1,8]naphthyridine-3-carboxylic acid]",MIC,[4],0.5 µg/mL
same,MIC,[5],4 µg/mL
same,MIC,[1],1 µg/mL
same,MIC,[2],8 µg/mL
same,MIC,[3],4 µg/mL
"CCOC(=O)OCC(F)=C1CCN(c2nc3c(cc2F)c(=O)c(C(=O)O)cn3C2CC2)CC1 [Compound 179, 1-Cyclopropyl-7-[4-(2-ethoxycarbonyloxy-1-fluoro-ethylidene)-piperidin-1-yl]-6-fluoro-4-oxo-1,4-dihydro-[1,8]naphthyridine-3-carboxylic acid]",MIC,[4],0.5 µg/mL
same,MIC,[5],2 µg/mL
same,MIC,[1],> 16 µg/mL
same,MIC,[2],> 16 µg/mL
same,MIC,[3],> 16 µg/mL
"CN(C)CC(Cl)=C1CCN(c2nc3c(cc2F)c(=O)c(C(=O)O)cn3C2CC2)CC1 [Compound 180, 7-[4-(1-Chloro-2-dimethylamino-ethylidene)-piperidin-1-yl]-1-cyclopropyl-6-fluoro-4-oxo-1,4-dihydro-[1,8]naphthyridine-3-carboxylic acid]",MIC,[4],0.5 µg/mL
same,MIC,[5],0.5 µg/mL
same,MIC,[2],8 µg/mL
same,MIC,[3],2 µg/mL
